How the values were obtained:
Experiment in all cases: Test D pre-/postemergence plant response
Assay type in all cases: in vivo
[1] = tested on: spanishneedles (Bidens bipinnata)
Text: (§1) Seeds of plant species selected from bermudagrass (Cynodon dactylon), Surinam grass (Brachiaria decumbens), large crabgrass (Digitaria sanguinalis), green foxtail (Setaria viridis), goosegrass (Eleusine indica), johnsongrass (Sorghum halepense), kochia (Kochia scoparia), morningglory (pitted morningglory, Ipomoea lacunosa), nutsedge (purple nutsedge, Cyperus rotundus), ragweed (common ragweed, Ambrosia elatior), black mustard (Brassica nigra), guineagrass (Panicum maximum), dallisgrass (Paspalum dilatatum), barnyardgrass (Echinochloa crus-galli), sandbur (southern sandbur, Cenchrus echinatus), sowthistle (common sowthistle, Sonchus oleraceous), prickly sida (Sida spinosa), Italian ryegrass (Lolium multiflorum), purslane (common purslane, Portulaca oleracea), signalgrass (broadleaf signalgrass, Brachiaria platyphylla), groundsel (common groundsel, Senecio vulgaris), chickweed (common chickweed, Stellaria media), dayflower (Virginia (VA) dayflower, Commelina virginica), bluegrass (annual bluegrass, Poa annua), naked crabgrass (Digitaria nuda), itchgrass (Rottboellia cochinchinensis), quackgrass (Elytrigia repens), field bindweed (Convolvulus arvensis), spanishneedles (Bidens bipinnata), mallow (common mallow, Malva sylvestris) and Russian thistle (Salsola kali), were planted into a blend of loam soil and sand and treated preemergence with test chemicals formulated in a non-phytotoxic solvent mixture which included a surfactant. At the same time, plants from these weed species were treated with postemergence applications of the test chemicals formulated in the same manner. Plants ranged in height from 2 to 18 cm (1- to 4-leaf stage) for postemergence treatments.
(§2) Treated plants and controls were maintained in a greenhouse for 14 to 21 days, after which time all species were visually evaluated and compared to controls. Plant response ratings, summarized in Table D, are based on a scale of 0 to 100 where 0 is no effect and 100 is complete control. A dash (-) response means no test result.

[2] = tested on: Russian thistle (Salsola kali)
Text: as §1, §2

[3] = tested on: bermudagrass (Cynodon dactylon)
Text: as §1, §2

[4] = tested on: kochia (Kochia scoparia)
Text: as §1, §2

[5] = tested on: Surinam grass (Brachiaria decumbens)
Text: as §1, §2

[6] = tested on: large crabgrass (Digitaria sanguinalis)
Text: as §1, §2

[7] = tested on: goosegrass (Eleusine indica)
Text: as §1, §2

[8] = tested on: signalgrass (broadleaf signalgrass, Brachiaria platyphylla)
Text: as §1, §2

[9] = tested on: nutsedge (purple nutsedge, Cyperus rotundus)
Text: as §1, §2

[10] = tested on: bluegrass (annual bluegrass, Poa annua)
Text: as §1, §2

[11] = Postemergence, 31 g ai/ha, scale 0 to 100
[12] = Postemergence, 62 g ai/ha, scale 0 to 100 (0 no effect, 100 complete control)
[13] = Postemergence, 125 g ai/ha, scale 0 to 100 (0 no effect, 100 complete control)
[14] = Postemergence, 16 g ai/ha, scale 0 to 100
[15] = Preemergence, 16 g ai/ha, scale 0 to 100, 0 no effect, 100 complete control
[16] = Preemergence, 31 g ai/ha, scale 0 to 100 (0 no effect, 100 complete control)
[17] = Preemergence, 125 g ai/ha, scale 0 to 100
[18] = Preemergence, rate not given, scale 0 to 100, 0 no effect, 100 complete control
[19] = Postemergence, 31 g ai/ha, scale 0 to 100 (0 no effect, 100 complete control)
[20] = Preemergence, 62 g ai/ha, scale 0 to 100

With `COCCn1c(-c2cccc(C)c2)ncc(C(=O)C2=C(O)C3CCC(C3)C2=O)c1=O` (stereo not drawn) [Compound 233] the “Plant response rating, Spanishneedles” value [1, 11] was 35, the “Plant response rating, Spanishneedles” value [1, 12] was 50 and the “Plant response rating, Spanishneedles” value [1, 13] was 60. The “Plant response rating, Spanishneedles” value [1, 14] was 35, the “Plant response rating, Spanishneedles” value [1, 15] was 0 and the “Plant response rating, Spanishneedles” value [1, 16] was 50. For the same compound, the “Plant response rating, Spanishneedles” value [1, 17] was 95, the “Plant response rating, Spanishneedles” value [1, 18] was 85 and the “Plant response rating, Russian Thistle” value [2, 13] was 10. For the same compound, the “Plant response rating, Russian Thistle” value [2, 14] was 0, the “Plant response rating, Russian Thistle” value [2, 15] was 50 and the “Plant response rating, Russian Thistle” value [2, 16] was 65. The “Plant response rating, Russian Thistle” value [2, 17] was 100, the “Plant response rating, Russian Thistle” value [2, 18] was 75 and the “Plant response rating, Bermudagrass” value [3, 19] was 70. The “Plant response rating, Bermudagrass” value [3, 12] was 70, the “Plant response rating, Bermudagrass” value [3, 13] was 70 and the “Plant response rating, Bermudagrass” value [3, 14] was 70. For the same compound, the “Plant response rating, Bermudagrass” value [3, 15] was 5, the “Plant response rating, Bermudagrass” value [3, 16] was 5 and the “Plant response rating, Bermudagrass” value [3, 20] was 85. For the same compound, the “Plant response rating, Bermudagrass” value [3, 17] was 85, the “Plant response rating, Kochia” value [4, 11] was 20 and the “Plant response rating, Kochia” value [4, 12] was 30. For the same compound, the “Plant response rating, Kochia” value [4, 13] was 35, the “Plant response rating, Kochia” value [4, 14] was 10 and the “Plant response rating, Kochia” value [4, 15] was 0. For the same compound, the “Plant response rating, Kochia” value [4, 16] was 0, the “Plant response rating, Kochia” value [4, 20] was 20 and the “Plant response rating, Kochia” value [4, 17] was 80. For the same compound, the “Plant response rating, Surinam Grass” value [5, 12] was 50, the “Plant response rating, Surinam Grass” value [5, 13] was 60 and the “Plant response rating, Surinam Grass” value [5, 14] was 30. For the same compound, the “Plant response rating, Surinam Grass” value [5, 15] was 0, the “Plant response rating, Surinam Grass” value [5, 16] was 5 and the “Plant response rating, Surinam Grass” value [5, 17] was 100. The “Plant response rating, Crabgrass, Large” value [6, 11] was 40, the “Plant response rating, Crabgrass, Large” value [6, 12] was 50 and the “Plant response rating, Crabgrass, Large” value [6, 13] was 60. The “Plant response rating, Crabgrass, Large” value [6, 14] was 20, the “Plant response rating, Crabgrass, Large” value [6, 15] was 0 and the “Plant response rating, Crabgrass, Large” value [6, 16] was 5. For the same compound, the “Plant response rating, Crabgrass, Large” value [6, 20] was 25, the “Plant response rating, Crabgrass, Large” value [6, 17] was 90 and the “Plant response rating, Goosegrass” value [7, 11] was 50. The “Plant response rating, Goosegrass” value [7, 12] was 60, the “Plant response rating, Goosegrass” value [7, 13] was 65 and the “Plant response rating, Goosegrass” value [7, 14] was 40. For the same compound, the “Plant response rating, Goosegrass” value [7, 15] was 70, the “Plant response rating, Goosegrass” value [7, 16] was 95 and the “Plant response rating, Goosegrass” value [7, 20] was 98. For the same compound, the “Plant response rating, Goosegrass” value [7, 17] was 100, the “Plant response rating, Signalgrass” value [8, 11] was 5 and the “Plant response rating, Signalgrass” value [8, 12] was 25. For the same compound, the “Plant response rating, Signalgrass” value [8, 13] was 35, the “Plant response rating, Signalgrass” value [8, 14] was 0 and the “Plant response rating, Signalgrass” value [8, 15] was 0. The “Plant response rating, Signalgrass” value [8, 16] was 0, the “Plant response rating, Signalgrass” value [8, 17] was 35 and the “Plant response rating, Nutsedge, Purple” value [9, 11] was 0. For the same compound, the “Plant response rating, Nutsedge, Purple” value [9, 12] was 0, the “Plant response rating, Nutsedge, Purple” value [9, 13] was 0 and the “Plant response rating, Nutsedge, Purple” value [9, 14] was 0. The “Plant response rating, Nutsedge, Purple” value [9, 15] was 0, the “Plant response rating, Nutsedge, Purple” value [9, 16] was 0 and the “Plant response rating, Nutsedge, Purple” value [9, 20] was 0. For the same compound, the “Plant response rating, Nutsedge, Purple” value [9, 17] was 5, the “Plant response rating, Bluegrass” value [10, 19] was 0 and the “Plant response rating, Bluegrass” value [10, 12] was 0. For the same compound, the “Plant response rating, Bluegrass” value [10, 13] was 0, the “Plant response rating, Bluegrass” value [10, 14] was 0 and the “Plant response rating, Bluegrass” value [10, 15] was 0. The “Plant response rating, Bluegrass” value [10, 16] was 0, the “Plant response rating, Bluegrass” value [10, 20] was 25 and the “Plant response rating, Bluegrass” value [10, 17] was 40.

From US8952024B2, “Herbicidal pyrimidone derivatives” (E I du Pont de Nemours and Company, priority 2009, dated 2015)
